The values that follow come from PMC5587642, “A Novel Benzocoumarin-Stilbene Hybrid as a DNA ligase I inhibitor with in vitro and in vivo anti-tumor activity in breast cancer models” (Scientific Reports, 2017).

Data set [1] can be described thus: Metabolic stability in rat liver microsomes. Format: in vitro ADME. On the procedure: Major drug clearance in the body occurs due to its metabolism in the liver. Metabolic stability in rat liver microsomes (RLM) was conducted in triplicate. Compound 19 (5 µM) was incubated in reaction milieu which contains RLM (0.5 mg/ml), MgCl2 (10 mM), NADPH (10 mM) in a 1.5 ml phosphate buffer solution (pH 7.4). Reaction was started by the addition of NADPH and kept in a shaking water bath at 37 °C. Organic content in reaction mixture was kept less than 1%. Time points at which samples were withdrawn were 0, 5, 15, 30, 45, 60 min. Testosterone was used as control to know the RLM enzyme activity. Control reaction without NADPH was performed to explore any chemical instability or non-cofactor dependent enzymatic degradation. At each time point 150 µL aliquots were withdrawn and added in 150 µL ACN, […] at 10,000 g for 5 minutes, 100 µL samples was pipetted out & analyzed in HPLC-PDA.
(In general: Microsomes from liver hold many membrane-bound enzymes, among them those of drug oxidation.)

For data set [2], the target named is T1, hLigI (Homo sapiens, UniProt P18858).
T1 construct: made in house
The data set is described as follows: In-vitro fluorescence quenching assay. The following applies: 5 and 10 µM, excitation 280 nm. The format is binding. On the procedure: In-vitro fluorescence quenching assay was performed as described previously[16] with brief modifications. At the fixed excitation wavelength 280 nm emission spectra of hLigI (100 pmol) was recorded from 300 to 400 nm in the presence (5 and 10 µM) or absence of compound 19 by spectrofluorometer. Compound 19 was used at 5 and 10 µM concentration with hLigI (100 pmol). Spectra was acquired for buffer alone (50 mM Tris-HCl, pH 7.5, 50 mM NaCl, 1 mM ATP, 10 mM MgCl2, 2 mM DTT and 5% glycerol), buffer with vehicle control, buffer with inhibitor alone and for buffer with protein and inhibitor.

T1 sequence (P18858 whole entry): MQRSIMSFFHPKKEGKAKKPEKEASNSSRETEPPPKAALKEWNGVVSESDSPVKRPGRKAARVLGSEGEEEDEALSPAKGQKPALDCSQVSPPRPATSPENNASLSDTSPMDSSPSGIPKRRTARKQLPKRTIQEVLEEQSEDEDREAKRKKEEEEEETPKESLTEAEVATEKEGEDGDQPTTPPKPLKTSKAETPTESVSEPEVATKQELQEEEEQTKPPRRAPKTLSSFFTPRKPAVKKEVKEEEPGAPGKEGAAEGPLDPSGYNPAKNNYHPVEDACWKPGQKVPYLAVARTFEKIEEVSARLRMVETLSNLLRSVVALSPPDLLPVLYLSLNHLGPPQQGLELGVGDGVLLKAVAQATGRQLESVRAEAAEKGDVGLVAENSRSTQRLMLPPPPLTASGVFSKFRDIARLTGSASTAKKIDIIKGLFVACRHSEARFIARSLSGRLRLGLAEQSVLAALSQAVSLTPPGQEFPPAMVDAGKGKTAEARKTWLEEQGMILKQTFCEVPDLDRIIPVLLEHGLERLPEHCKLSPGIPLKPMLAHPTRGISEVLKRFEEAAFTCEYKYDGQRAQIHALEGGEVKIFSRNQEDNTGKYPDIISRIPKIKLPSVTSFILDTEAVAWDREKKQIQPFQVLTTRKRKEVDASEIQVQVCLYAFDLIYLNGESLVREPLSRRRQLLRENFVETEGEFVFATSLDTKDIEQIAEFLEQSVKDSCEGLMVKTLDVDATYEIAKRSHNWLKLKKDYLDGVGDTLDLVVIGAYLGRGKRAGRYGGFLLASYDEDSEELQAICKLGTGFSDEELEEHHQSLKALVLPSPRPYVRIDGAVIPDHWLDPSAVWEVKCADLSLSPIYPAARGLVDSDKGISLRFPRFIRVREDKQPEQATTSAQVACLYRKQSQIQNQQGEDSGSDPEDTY

For `COc1cc(/C=C/c2cc(=O)oc3c2ccc2ccccc23)cc(OC)c1` [Compound 19, (E)-4-(3,5-dimethoxystyryl)-2H-benzo[h]chromen-2-one], in data set [1] (5 µM, RLM 0.5 mg/ml, NADPH, up to 60 min), the Microsomal metabolic stability was 55.5 ± 4.77%. Moreover, in data set [1] (RLM without NADPH), the “Stability in control reaction in the absence of cofactor” value is given as “stable”. Further, the “Change of hLigI fluorescence spectra (protein binding)” value in data set [2] was “fluorescence spectra of the full length hLigI protein changed”.
